Measurements published in US20080145313A1, “Compositions and Methods for the Treatment and Prevention of Neoplastic Disorders” (Genesis Research & Development Corporation Limited, priority 2006, published 2008).

What follows are substances tested on target transcript mRNA in A549 cells (assay: Level of mRNA of target transcript in A549 cells by quantitative RT-PCR (Tables 12 and 13)). Conditions: 0.1 nM siRNA, 24 h post-transfection.
Assay type: cell-based, human
Procedure, shortened: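 Target mRNA was measured by SYBR Green quantitative RT-PCR using random-primed cDNA, normalised to HPRT and Lamin. Samples came from A549 cells 24 h post-transfection with 0.1, 1.0 or 10 nM siRNA.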

Row | Substance | mRNA knockdown of transporter gene target transcript, 0.1 nM
1 | SEQ ID NO: 4919: siRNA targeting SLC9A1 (NHE1) (chain 1 AAACTCCTCAAAGAGGTGATACAGG; chain 2 AAACUCCUCAAAGAGGUGAUACAGG; chemistry not given here; one strand in two spellings) | ++ (70-90% mRNA knockdown)

Same assay, conditions: 1 nM siRNA, 24 h post-transfection

Row | Substance | mRNA knockdown of transporter gene target transcript, 1 nM
2 | SEQ ID NO: 4919: siRNA targeting SLC9A1 (NHE1) (chain 1 AAACTCCTCAAAGAGGTGATACAGG; chain 2 AAACUCCUCAAAGAGGUGAUACAGG; chemistry not given here; one strand in two spellings) | ++ (70-90% mRNA knockdown)

What follows are substances tested on A549 cells (assay: Growth inhibition of siRNA-transfected A549 cells, SYBR Green I DNA content). Conditions: 10 nM siRNA; DNA content 96 hours after transfection.
Assay type: cell-based, human
Procedure, shortened: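 Growth read-out: cellular DNA quantified with SYBR Green I (485/535 nm) 96 h after transfection, cells frozen, thawed and lysed in PBS/1% Triton X-100, pH 7. Cells (A549, 5×10^3 cells/cm^2) received 10 nM siRNA by RNAiMAX; non-specific siRNA served as control; triplicate wells averaged.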

Row | Substance | Growth Inhibition in A549 cells
3 | SEQ ID NO: 4855: siRNA targeting FASN (chain 1 TTGGAAGGCACATCCCAGAGGAAGT; chain 2 UUGGAAGGCACAUCCCAGAGGAAGU; Both strands are one antisense strand in DNA/RNA notation, chemistry not given here, further chemistry not given here; one strand in two spellings) | + (inhibits by at least 50%)
4 | SEQ ID NO: 5002: siRNA targeting DPYD (chain 1 GCCACTGAAGAGGGACCCATTAATA; chain 2 GCCACUGAAGAGGGACCCAUUAAUA; chemistry not given here; one strand in two spellings) | − (no growth inhibition with any siRNA)
5 | SEQ ID NO: 4806: siRNA targeting ARNT (HIF-1β) (chain 1 ATCAGTGGATGTGTTGCCAGTTCCC; chain 2 AUCAGUGGAUGUGUUGCCAGUUCCC; chemistry not given here; one strand in two spellings) | − (no growth inhibition with any siRNA)
6 | SEQ ID NO: 4857: siRNA targeting ACLY (chain 1 ATAGTTTGCCAGCTCGTTGACACCC; chain 2 AUAGUUUGCCAGCUCGUUGACACCC; Both strands are one antisense strand in DNA/RNA notation, chemistry not given here, further chemistry not given here; one strand in two spellings) | + (inhibits by at least 50%)
7 | SEQ ID NO: 4838: siRNA targeting DHFR (chain 1 TTCTGGCAGAAGTTTATATTTCTCC; chain 2 UUCUGGCAGAAGUUUAUAUUUCUCC; chemistry not given here; one strand in two spellings) | + (inhibits by at least 50%)
8 | SEQ ID NO: 5003: siRNA targeting DPYD (chain 1 GGCTACAAAGCTGCTTTCATTGGAA; chain 2 GGCUACAAAGCUGCUUUCAUUGGAA; chemistry not given here; one strand in two spellings) | − (no growth inhibition with any siRNA)
9 | SEQ ID NO: 4820: siRNA targeting PFKL (chain 1 TAGTCTCTGAGATCTTACCTTCCGC; chain 2 UAGUCUCUGAGAUCUUACCUUCCGC; chemistry not given here; one strand in two spellings) | − (no growth inhibition with any siRNA)
10 | SEQ ID NO: 4876: siRNA targeting CTPS (chain 1 ATAAAGGGCATGCTTTCTATGTCCC; chain 2 AUAAAGGGCAUGCUUUCUAUGUCCC; Both strands are one antisense strand in DNA/RNA notation, chemistry not given here, further chemistry not given here; one strand in two spellings) | − (no growth inhibition with any siRNA)
11 | SEQ ID NO: 4990: siRNA targeting TK1 (chain 1 GACATCATGGAGTTCTGCGAGGCCA; chain 2 GACAUCAUGGAGUUCUGCGAGGCCA; chemistry not given here; one strand in two spellings) | − (no growth inhibition with any siRNA)
12 | SEQ ID NO: 4858: siRNA targeting ACLY (chain 1 TTCTTGATCAGCTTTCTCGTGAGGG; chain 2 UUCUUGAUCAGCUUUCUCGUGAGGG; Both strands are one antisense strand in DNA/RNA notation, chemistry not given here, further chemistry not given here; one strand in two spellings) | − (no growth inhibition with any siRNA)
13 | SEQ ID NO: 4859: siRNA targeting ACLY (chain 1 TACAGATGAACTTGTAAAGGAGTTC; chain 2 UACAGAUGAACUUGUAAAGGAGUUC; Both strands are one antisense strand in DNA/RNA notation, chemistry not given here, further chemistry not given here; one strand in two spellings) | − (no growth inhibition with any siRNA)
14 | SEQ ID NO: 4836: siRNA targeting DHFR (chain 1 AATATCTGAATTCATTCCTGAGCGG; chain 2 AAUAUCUGAAUUCAUUCCUGAGCGG; chemistry not given here; one strand in two spellings) | + (inhibits by at least 50%)
15 | SEQ ID NO: 4849: siRNA targeting COX5A (chain 1 CAATTCCCAGGCATCTATATCTGGC; chain 2 CAAUUCCCAGGCAUCUAUAUCUGGC; chemistry not given here; one strand in two spellings) | − (no growth inhibition with any siRNA)
16 | SEQ ID NO: 4839: siRNA targeting AK1 (chain 1 TTCTGCACGATCTTCTCACACTGGG; chain 2 UUCUGCACGAUCUUCUCACACUGGG; chemistry not given here; one strand in two spellings) | − (no growth inhibition with any siRNA)
17 | SEQ ID NO: 4851: siRNA targeting ATP5B (chain 1 TTTCCATGAACTCTGGAGCCTCAGC; chain 2 UUUCCAUGAACUCUGGAGCCUCAGC; Both strands are one antisense strand in DNA/RNA notation, chemistry not given here, further chemistry not given here; one strand in two spellings) | − (no growth inhibition with any siRNA)
18 | SEQ ID NO: 4842: siRNA targeting NADSYN (chain 1 TAGCTGATCTGGTTCACGATGGTGC; chain 2 UAGCUGAUCUGGUUCACGAUGGUGC; chemistry not given here; one strand in two spellings) | + (inhibits by at least 50%)
19 | SEQ ID NO: 4843: siRNA targeting NADSYN (chain 1 ATGAGCTGCAAACAGAGGGCTCTTC; chain 2 AUGAGCUGCAAACAGAGGGCUCUUC; chemistry not given here; one strand in two spellings) | − (no growth inhibition with any siRNA)
20 | SEQ ID NO: 4868: siRNA targeting UQCRC2 (chain 1 TTGCGGTCACACTTAATTTGCCACC; chain 2 UUGCGGUCACACUUAAUUUGCCACC; Both strands are one antisense strand in DNA/RNA notation, chemistry not given here, further chemistry not given here; one strand in two spellings) | + (inhibits by at least 50%)
21 | SEQ ID NO: 4829: siRNA targeting CAD (chain 1 AACTGTGTCAATCTGTTTCACTGCT; chain 2 AACUGUGUCAAUCUGUUUCACUGCU; chemistry not given here; one strand in two spellings) | + (inhibits by at least 50%)
22 | SEQ ID NO: 4822: siRNA targeting PRPS1 (chain 1 TCCACATTCAGCCTGTCTGCAATGG; chain 2 UCCACAUUCAGCCUGUCUGCAAUGG; chemistry not given here; one strand in two spellings) | − (no growth inhibition with any siRNA)
23 | SEQ ID NO: 4863: siRNA targeting SLC25A6 (ANT3) (chain 1 AAAGTACCTCCAGAACTGCGTGTGC; chain 2 AAAGUACCUCCAGAACUGCGUGUGC; Both strands are one antisense strand in DNA/RNA notation, chemistry not given here, further chemistry not given here; one strand in two spellings) | ++ (inhibits by at least 75%)
24 | SEQ ID NO: 4875: siRNA targeting CTPS (chain 1 AATAACACACACTTGAGGTTCCAGG; chain 2 AAUAACACACACUUGAGGUUCCAGG; Both strands are one antisense strand in DNA/RNA notation, chemistry not given here, further chemistry not given here; one strand in two spellings) | ++ (inhibits by at least 75%)

Same assay, conditions: A549 cells, 10 nM siRNA, DNA content 96 hours after transfection, transporter gene targets

Row | Substance | Growth Inhibition in A549 cells by 10 nM siRNA
25 | SEQ ID NO: 4919: siRNA targeting SLC9A1 (NHE1) (chain 1 AAACTCCTCAAAGAGGTGATACAGG; chain 2 AAACUCCUCAAAGAGGUGAUACAGG; chemistry not given here; one strand in two spellings) | + (inhibits by at least 50%)
26 | SEQ ID NO: 4950: siRNA targeting ATP6V1A (chain 1 TTTCATGGAGGAAAGTTTATAGAGG; chain 2 UUUCAUGGAGGAAAGUUUAUAGAGG; chemistry not given here; one strand in two spellings) | − (no growth inhibition)
27 | SEQ ID NO: 4943: siRNA targeting ATP2B3 (PMCA3) (chain 1 AAACGTCTCAATCACAAAGTAGAGG; chain 2 AAACGUCUCAAUCACAAAGUAGAGG; chemistry not given here; one strand in two spellings) | − (no growth inhibition)
